For orientation: DC50 means the midpoint of the concentration-degradation curve. Lower therefore signals degradation at low concentration. In general, IC50 refers to the concentration at which inhibition is half-maximal.

The values that follow come from patent publication US20240150360A1 (THE REGENTS OF THE UNIVERSITY OF MICHIGAN, priority 2021, published 2024).

One test deals with T1, CBP (Homo sapiens, UniProt Q92793).
T1 construct: endogenous in cells; host or cells: 22Rv1 (ATCC CRL-2505) human prostate cancer cells
In words: CBP degradation in 22Rv1 cells (5 h). Format: cell-based. The conditions noted are these: 22Rv1 cells, 5 h; for Dmax: 22Rv1, 5 h, read-out: CBP Degradation (22Rv1, 5 h) DCmax. From the text:
(§1) Biological Assays. […] Cells with 3-8 passages after purchase were used in experiments.

The next test concerns the target T2, P300 (Homo sapiens, UniProt Q09472).
T2 construct: endogenous in cells; host or cells: 22Rv1 (ATCC CRL-2505) human prostate cancer cells
In words: P300 degradation in 22Rv1 cells (5 h). Format: cell-based. The conditions noted are these: 22Rv1 cells, 5 h; for Dmax: read-out: P300 Degradation (22Rv1, 5 h) DCmax.
Description: as §1

For a further test, the system named is 22Rv1 cells. Nature of the test: Cell growth inhibition assay (CellTiter-Glo) in 22Rv1. The test is classed as cell-based, human. The conditions noted are these: Homo sapiens, 22Rv1, 96 h, 22Rv1 cells, 96 h incubation; read-out: Cell Growth Inhibition (IC50) 22Rv1. An outline of the steps: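 22Rv1 prostate cancer cells (passages 3-8, DMEM with 10% FBS) were seeded at 4000 cells/well with compound, 3-fold dilutions from 10 μM final. After 96 h at 37° C and 5% CO2, growth was read by CellTiter-Glo 2.0 luminescence.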

For the next test, the system named is HL60. In words: Cell growth inhibition in HL60. Format: cell-based. Conditions: Homo sapiens, HL-60, HL60 cells; read-out: Cell Growth Inhibition (IC50) HL60.

T1 sequence (Q92793 whole entry): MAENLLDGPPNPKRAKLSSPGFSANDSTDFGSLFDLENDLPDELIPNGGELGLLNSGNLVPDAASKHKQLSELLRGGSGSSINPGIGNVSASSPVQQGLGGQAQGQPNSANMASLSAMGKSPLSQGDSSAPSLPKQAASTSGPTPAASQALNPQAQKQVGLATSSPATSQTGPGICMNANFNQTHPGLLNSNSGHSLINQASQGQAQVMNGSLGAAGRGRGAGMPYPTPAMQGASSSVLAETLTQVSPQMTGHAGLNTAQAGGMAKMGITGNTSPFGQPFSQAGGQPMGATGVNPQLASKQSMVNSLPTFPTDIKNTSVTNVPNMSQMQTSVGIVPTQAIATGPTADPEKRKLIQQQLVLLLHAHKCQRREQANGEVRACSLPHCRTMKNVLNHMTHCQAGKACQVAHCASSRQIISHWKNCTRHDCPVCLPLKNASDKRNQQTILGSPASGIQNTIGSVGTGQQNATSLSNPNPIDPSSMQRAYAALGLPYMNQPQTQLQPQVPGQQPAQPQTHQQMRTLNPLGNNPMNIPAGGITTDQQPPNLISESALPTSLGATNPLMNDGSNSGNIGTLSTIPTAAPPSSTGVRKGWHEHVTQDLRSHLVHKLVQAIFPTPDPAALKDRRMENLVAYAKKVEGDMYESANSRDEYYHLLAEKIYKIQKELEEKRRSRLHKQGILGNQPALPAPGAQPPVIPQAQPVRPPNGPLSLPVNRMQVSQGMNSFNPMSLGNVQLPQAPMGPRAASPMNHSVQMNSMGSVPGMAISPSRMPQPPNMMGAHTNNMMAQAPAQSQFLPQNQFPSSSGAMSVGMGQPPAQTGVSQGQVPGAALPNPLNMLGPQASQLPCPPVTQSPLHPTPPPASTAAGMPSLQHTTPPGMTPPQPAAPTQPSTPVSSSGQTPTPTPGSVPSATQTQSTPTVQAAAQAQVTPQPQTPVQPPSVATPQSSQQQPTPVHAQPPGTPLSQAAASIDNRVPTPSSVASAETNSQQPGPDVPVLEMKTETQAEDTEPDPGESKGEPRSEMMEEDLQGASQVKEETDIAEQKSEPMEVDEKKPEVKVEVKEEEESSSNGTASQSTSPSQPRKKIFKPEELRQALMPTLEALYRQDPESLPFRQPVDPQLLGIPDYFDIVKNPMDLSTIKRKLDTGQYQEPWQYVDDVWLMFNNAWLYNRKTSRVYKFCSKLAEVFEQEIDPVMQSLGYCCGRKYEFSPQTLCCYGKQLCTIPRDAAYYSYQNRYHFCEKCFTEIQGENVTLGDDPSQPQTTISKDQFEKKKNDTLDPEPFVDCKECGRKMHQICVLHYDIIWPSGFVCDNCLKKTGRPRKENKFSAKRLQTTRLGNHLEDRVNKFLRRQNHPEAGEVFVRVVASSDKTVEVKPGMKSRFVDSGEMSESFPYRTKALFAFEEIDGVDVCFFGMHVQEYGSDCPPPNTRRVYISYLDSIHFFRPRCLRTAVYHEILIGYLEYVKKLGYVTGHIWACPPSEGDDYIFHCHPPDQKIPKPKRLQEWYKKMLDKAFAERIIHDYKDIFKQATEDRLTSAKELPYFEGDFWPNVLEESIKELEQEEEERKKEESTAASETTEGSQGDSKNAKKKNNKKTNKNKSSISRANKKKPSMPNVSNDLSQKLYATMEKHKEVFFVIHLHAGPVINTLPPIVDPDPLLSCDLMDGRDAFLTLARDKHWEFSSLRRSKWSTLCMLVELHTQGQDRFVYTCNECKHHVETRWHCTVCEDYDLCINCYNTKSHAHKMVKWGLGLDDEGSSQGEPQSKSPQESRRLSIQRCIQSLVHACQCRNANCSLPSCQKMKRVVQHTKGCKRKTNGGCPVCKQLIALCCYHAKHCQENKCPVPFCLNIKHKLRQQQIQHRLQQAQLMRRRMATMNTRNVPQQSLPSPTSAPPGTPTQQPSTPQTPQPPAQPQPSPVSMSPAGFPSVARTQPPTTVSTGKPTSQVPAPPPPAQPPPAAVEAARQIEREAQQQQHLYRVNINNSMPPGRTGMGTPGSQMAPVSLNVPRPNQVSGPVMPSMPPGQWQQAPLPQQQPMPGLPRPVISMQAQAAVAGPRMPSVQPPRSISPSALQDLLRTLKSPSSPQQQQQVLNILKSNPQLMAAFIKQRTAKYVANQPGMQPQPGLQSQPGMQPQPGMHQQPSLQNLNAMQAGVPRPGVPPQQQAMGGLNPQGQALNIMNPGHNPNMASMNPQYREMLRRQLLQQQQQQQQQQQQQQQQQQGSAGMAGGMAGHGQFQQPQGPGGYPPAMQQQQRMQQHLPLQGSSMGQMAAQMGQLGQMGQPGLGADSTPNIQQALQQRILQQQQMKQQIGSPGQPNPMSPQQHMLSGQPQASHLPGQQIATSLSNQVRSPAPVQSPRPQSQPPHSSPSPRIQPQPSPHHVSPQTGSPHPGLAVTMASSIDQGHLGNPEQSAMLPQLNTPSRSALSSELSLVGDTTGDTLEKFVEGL
T2 sequence (Q09472 whole entry): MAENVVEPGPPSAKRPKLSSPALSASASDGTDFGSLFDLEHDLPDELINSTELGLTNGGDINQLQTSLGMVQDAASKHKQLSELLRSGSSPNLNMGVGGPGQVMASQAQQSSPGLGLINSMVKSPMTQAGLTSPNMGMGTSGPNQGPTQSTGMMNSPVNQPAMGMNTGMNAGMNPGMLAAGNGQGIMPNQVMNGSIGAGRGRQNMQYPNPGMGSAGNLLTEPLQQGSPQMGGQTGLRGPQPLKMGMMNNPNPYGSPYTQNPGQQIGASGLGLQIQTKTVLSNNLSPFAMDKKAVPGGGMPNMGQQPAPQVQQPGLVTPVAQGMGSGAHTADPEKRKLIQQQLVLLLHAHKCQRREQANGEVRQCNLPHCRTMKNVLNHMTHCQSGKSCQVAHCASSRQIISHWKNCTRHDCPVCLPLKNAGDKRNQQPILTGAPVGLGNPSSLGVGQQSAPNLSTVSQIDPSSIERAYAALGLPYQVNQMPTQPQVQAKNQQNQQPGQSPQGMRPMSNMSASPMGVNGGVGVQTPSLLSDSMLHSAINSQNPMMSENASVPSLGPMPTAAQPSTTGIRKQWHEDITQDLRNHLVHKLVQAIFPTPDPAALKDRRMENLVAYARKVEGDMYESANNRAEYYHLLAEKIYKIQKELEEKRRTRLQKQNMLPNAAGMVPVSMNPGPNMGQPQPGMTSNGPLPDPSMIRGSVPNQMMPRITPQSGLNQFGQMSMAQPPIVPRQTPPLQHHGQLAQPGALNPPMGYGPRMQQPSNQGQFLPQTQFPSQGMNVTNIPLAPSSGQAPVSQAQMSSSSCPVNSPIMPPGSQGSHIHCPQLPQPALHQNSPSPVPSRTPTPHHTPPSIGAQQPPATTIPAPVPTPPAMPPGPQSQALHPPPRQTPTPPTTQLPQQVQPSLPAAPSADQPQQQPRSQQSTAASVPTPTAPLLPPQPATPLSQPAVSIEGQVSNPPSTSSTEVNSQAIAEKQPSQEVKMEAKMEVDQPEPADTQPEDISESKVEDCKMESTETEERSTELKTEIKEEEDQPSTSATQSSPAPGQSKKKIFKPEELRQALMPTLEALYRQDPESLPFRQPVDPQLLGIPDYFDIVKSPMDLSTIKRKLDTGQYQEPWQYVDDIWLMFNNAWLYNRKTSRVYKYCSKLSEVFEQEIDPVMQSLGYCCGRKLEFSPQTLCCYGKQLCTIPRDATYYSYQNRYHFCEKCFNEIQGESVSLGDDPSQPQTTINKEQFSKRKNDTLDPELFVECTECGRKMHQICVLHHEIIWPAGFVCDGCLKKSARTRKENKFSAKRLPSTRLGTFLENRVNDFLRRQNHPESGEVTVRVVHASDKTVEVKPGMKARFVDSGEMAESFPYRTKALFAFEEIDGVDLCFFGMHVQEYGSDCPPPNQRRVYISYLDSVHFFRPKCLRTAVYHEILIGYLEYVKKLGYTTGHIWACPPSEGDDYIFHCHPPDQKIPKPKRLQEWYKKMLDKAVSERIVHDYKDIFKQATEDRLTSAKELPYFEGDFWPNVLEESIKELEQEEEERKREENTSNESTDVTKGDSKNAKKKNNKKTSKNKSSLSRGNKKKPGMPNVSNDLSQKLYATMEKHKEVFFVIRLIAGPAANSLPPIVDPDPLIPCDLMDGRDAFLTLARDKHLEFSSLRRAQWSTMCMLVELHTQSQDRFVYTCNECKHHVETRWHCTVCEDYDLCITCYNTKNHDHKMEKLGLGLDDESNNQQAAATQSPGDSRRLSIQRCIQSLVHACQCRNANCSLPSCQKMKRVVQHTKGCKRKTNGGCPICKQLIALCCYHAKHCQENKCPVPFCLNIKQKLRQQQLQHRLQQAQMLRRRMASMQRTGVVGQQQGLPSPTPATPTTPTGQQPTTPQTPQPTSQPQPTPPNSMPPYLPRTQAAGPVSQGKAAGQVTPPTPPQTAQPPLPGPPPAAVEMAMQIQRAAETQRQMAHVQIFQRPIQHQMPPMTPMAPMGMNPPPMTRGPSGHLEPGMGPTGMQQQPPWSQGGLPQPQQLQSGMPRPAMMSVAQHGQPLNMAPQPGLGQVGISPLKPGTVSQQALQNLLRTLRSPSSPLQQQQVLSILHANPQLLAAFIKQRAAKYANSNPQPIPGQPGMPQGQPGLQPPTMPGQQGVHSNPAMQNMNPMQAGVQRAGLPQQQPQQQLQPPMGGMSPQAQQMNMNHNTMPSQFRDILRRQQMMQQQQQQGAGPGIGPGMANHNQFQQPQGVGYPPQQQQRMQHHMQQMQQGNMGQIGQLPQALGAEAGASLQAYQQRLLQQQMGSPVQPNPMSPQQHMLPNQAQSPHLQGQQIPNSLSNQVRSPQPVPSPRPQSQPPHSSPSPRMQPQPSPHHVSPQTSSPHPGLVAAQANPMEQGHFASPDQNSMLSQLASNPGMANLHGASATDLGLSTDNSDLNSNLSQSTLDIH

For the compound `CC(=O)N1CCc2c(c(N3CCCc4cc(-c5ccc(F)cc5)c(C(F)F)cc43)nn2C2CCN(C(=O)CN3Cc4cc5c(cc4C3)C(=O)N(C3CCC(=O)NC3=O)C5=O)CC2)C1` (stereo not drawn) [CP-023, 6-(2-(4-(5-acetyl-3-(7-(difluoromethyl)-6-(4-fluorophenyl)-3,4-dihydroquinolin-1(2H)-yl)-4,5,6,7-tetrahydro-1H-pyrazolo[4,3-c]pyridin-1-yl)piperidin-1-yl)-2-oxoethyl)-2-(2,6-dioxopiperidin-3-yl)-6,7-dihydropyrrolo[3,4-f]isoindole-1,3(2H,5H)-dione], the Dmax was more than 90% at CBP and more than 70% at P300. In addition, the DC50 on CBP and on P300 was less than 10 nM throughout. The IC50 was less than 1000 nM with 22Rv1 cells and less than 100 nM with HL60.

As for `CC(=O)N1CCc2c(c(N3CCCc4cc(-c5cccs5)c(C(F)F)cc43)nn2C2CCN(C(=O)CN3Cc4cc5c(cc4C3)C(=O)N(C3CCC(=O)NC3=O)C5=O)CC2)C1` (stereo not drawn) [CP-024, 6-(2-(4-(5-acetyl-3-(7-(difluoromethyl)-6-(thiophen-2-yl)-3,4-dihydroquinolin-1(2H)-yl)-4,5,6,7-tetrahydro-1H-pyrazolo[4,3-c]pyridin-1-yl)piperidin-1-yl)-2-oxoethyl)-2-(2,6-dioxopiperidin-3-yl)-6,7-dihydropyrrolo[3,4-f]isoindole-1,3(2H,5H)-dione], the values for the Dmax at CBP and at P300 were more than 90% and more than 70%, respectively. Besides, the DC50 on CBP and on P300 was less than 10 nM each time. In addition, the results for the half-inhibitory concentration (IC50) in the test with 22Rv1 cells and with HL60 were less than 1000 nM and less than 100 nM, respectively.

Turning to `CC(=O)N1CCc2c(c(N3CCCc4cc(CCC5CC5)c(C(F)F)cc43)nn2C2CCN(C(=O)CN3Cc4cc5c(cc4C3)C(=O)N(C3CCC(=O)NC3=O)C5=O)CC2)C1` (stereo not drawn) [CP-025, 6-(2-(4-(5-acetyl-3-(6-(2-cyclopropylethyl)-7-(difluoromethyl)-3,4-dihydroquinolin-1(2H)-yl)-4,5,6,7-tetrahydro-1H-pyrazolo[4,3-c]pyridin-1-yl)piperidin-1-yl)-2-oxoethyl)-2-(2,6-dioxopiperidin-3-yl)-6,7-dihydropyrrolo[3,4-f]isoindole-1,3(2H,5H)-dione], the Dmax was less than 50% at CBP and more than 70% on P300. In addition, the DC50 at CBP and on P300 was less than 10 nM in each case. The IC50 is less than 1000 nM in the test on 22Rv1 cells and less than 100 nM in the test on HL60.

On to `CC(=O)N1CCc2c(c(N3CCCc4cc(CCC(C)C)c(C(F)F)cc43)nn2C2CCN(C(=O)CN3Cc4cc5c(cc4C3)C(=O)N(C3CCC(=O)NC3=O)C5=O)CC2)C1` (stereo not drawn) [CP-026, 6-(2-(4-(5-acetyl-3-(7-(difluoromethyl)-6-isopentyl-3,4-dihydroquinolin-1(2H)-yl)-4,5,6,7-tetrahydro-1H-pyrazolo[4,3-c]pyridin-1-yl)piperidin-1-yl)-2-oxoethyl)-2-(2,6-dioxopiperidin-3-yl)-6,7-dihydropyrrolo[3,4-f]isoindole-1,3(2H,5H)-dione], for which the results for the Dmax at CBP and at P300 were more than 90% and more than 70%, respectively. In addition, the DC50 at CBP and at P300 was less than 10 nM throughout. Also, the IC50 with 22Rv1 cells is less than 1000 nM; in the test with HL60, less than 100 nM.

For the compound `CC(=O)N1CCc2c(c(N3CCCc4cc(-c5cnn(C)c5)c(C(F)F)cc43)nn2C2CCC(N3CCc4cc5c(cc4C3)C(=O)N(C3CCC(=O)NC3=O)C5=O)CC2)C1` (stereo not drawn) [CP-038, 6-(4-(5-acetyl-3-(7-(difluoromethyl)-6-(1-methyl-1H-pyrazol-4-yl)-3,4-dihydroquinolin-1(2H)-yl)-4,5,6,7-tetrahydro-1H-pyrazolo[4,3-c]pyridin-1-yl)cyclohexyl)-2-(2,6-dioxopiperidin-3-yl)-5,6,7,8-tetrahydro-1H-pyrrolo[3,4-g]isoquinoline-1,3(2H)-dione], the Dmax at CBP and at P300 was more than 90% in each case. The DC50 on CBP and on P300 was less than 10 nM throughout. Moreover, the IC50 in the test with 22Rv1 cells and with HL60 was less than 100 nM each time.

Turning to `CC(=O)N1CCc2c(c(N3CCCc4cc(-c5cnn(C)c5)c(C(F)F)cc43)nn2C[C@H]2CC[C@H](N3CCc4cc5c(cc4C3)C(=O)N(C3CCC(=O)NC3=O)C5=O)CC2)C1` (stereo partly drawn) [CP-041, 6-(4-((5-acetyl-3-(7-(difluoromethyl)-6-(1-methyl-1H-pyrazol-4-yl)-3,4-dihydroquinolin-1(2H)-yl)-4,5,6,7-tetrahydro-1H-pyrazolo[4,3-c]pyridin-1-yl)methyl)cyclohexyl)-2-(2,6-dioxopiperidin-3-yl)-5,6,7,8-tetrahydro-1H-pyrrolo[3,4-g]isoquinoline-1,3(2H)-dione], the Dmax at CBP and at P300 was more than 90% each time. Further, the DC50 on CBP and on P300 was less than 10 nM in each case. The values for the 50% inhibitory concentration (IC50) with 22Rv1 cells and in the test on HL60 were less than 1000 nM and less than 100 nM, respectively.

Consider `CC(=O)N1CCc2c(c(N3CCCc4cc(-c5cnn(C)c5)c(C(F)F)cc43)nn2C2CCC(CCN3CCc4cc5c(cc4C3)C(=O)N(C3CCC(=O)NC3=O)C5=O)CC2)C1` (stereo not drawn) [CP-045, 6-(2-(4-(5-acetyl-3-(7-(difluoromethyl)-6-(1-methyl-1H-pyrazol-4-yl)-3,4-dihydroquinolin-1(2H)-yl)-4,5,6,7-tetrahydro-1H-pyrazolo[4,3-c]pyridin-1-yl)cyclohexyl)ethyl)-2-(2,6-dioxopiperidin-3-yl)-5,6,7,8-tetrahydro-1H-pyrrolo[3,4-g]isoquinoline-1,3(2H)-dione], for which the values for the Dmax on CBP and on P300 were more than 90% and more than 70%, respectively. Besides, the DC50 on CBP and on P300 was less than 10 nM throughout. Moreover, the IC50 in the test on 22Rv1 cells and in the test on HL60 was less than 100 nM in each case.

As to `CC(=O)N1CCc2c(c(N3CCCc4cc(-c5cnn(C)c5)c(C(F)F)cc43)nn2[C@H]2CC[C@H](CN3Cc4cc5c(cc4C3)C(=O)N(C3CCC(=O)NC3=O)C5)CC2)C1` (stereo partly drawn) [CP-048, 3-(6-(((1r,4r)-4-(5-acetyl-3-(7-(difluoromethyl)-6-(1-methyl-1H-pyrazol-4-yl)-3,4-dihydroquinolin-1(2H)-yl)-4,5,6,7-tetrahydro-1H-pyrazolo[4,3-c]pyridin-1-yl)cyclohexyl)methyl)-1-oxo-3,5,6,7-tetrahydropyrrolo[3,4-f]isoindol-2(1H)-yl)piperidine-2,6-dione], the Dmax on CBP and on P300 was more than 90% throughout. The DC50 on CBP and on P300 was less than 10 nM throughout. Also, the IC50 with 22Rv1 cells and with HL60 was less than 100 nM in each case.

For the compound `CC(=O)N1CCc2c(c(N3CCCc4cc(-c5cnn(C)c5)c(C(F)F)cc43)nn2[C@H]2CC[C@H](CN3CCc4cc5c(cc4C3)C(=O)N(C3CCC(=O)NC3=O)C5=O)CC2)C1` (stereo partly drawn) [CP-049, 6-((4-(5-acetyl-3-(7-(difluoromethyl)-6-(1-methyl-1H-pyrazol-4-yl)-3,4-dihydroquinolin-1(2H)-yl)-4,5,6,7-tetrahydro-1H-pyrazolo[4,3-c]pyridin-1-yl)cyclohexyl)methyl)-2-(2,6-dioxopiperidin-3-yl)-5,6,7,8-tetrahydro-1H-pyrrolo[3,4-g]isoquinoline-1,3(2H)-dione], the Dmax at CBP is more than 90%; on P300, more than 70%. For the same compound, the DC50 at CBP and at P300 was less than 10 nM in each case. The IC50 in the test on 22Rv1 cells and with HL60 was less than 100 nM in each case.

For `CC(=O)N1CCc2c(c(N3CCCc4cc(-c5cnn(C)c5)c(C(F)F)cc43)nn2C2CCC(C(C)CN3Cc4cc5c(cc4C3)C(=O)N(C3CCC(=O)NC3=O)C5=O)CC2)C1` (stereo not drawn) [CP-051, 6-(2-(4-(5-acetyl-3-(7-(difluoromethyl)-6-(1-methyl-1H-pyrazol-4-yl)-3,4-dihydroquinolin-1(2H)-yl)-4,5,6,7-tetrahydro-1H-pyrazolo[4,3-c]pyridin-1-yl)cyclohexyl)propyl)-2-(2,6-dioxopiperidin-3-yl)-6,7-dihydropyrrolo[3,4-f]isoindole-1,3(2H,5H)-dione], the Dmax at CBP and on P300 was more than 90% in each case. The DC50 at CBP and on P300 was less than 10 nM each time. Moreover, the IC50 with 22Rv1 cells and with HL60 was less than 100 nM throughout.

As for `CC(=O)N1CCc2c(c(N3CCCc4cc(-c5cnn(C)c5)c(C(F)F)cc43)nn2C2CCN(CC3Cc4cc5c(cc4C3)C(=O)N(C3CCC(=O)NC3=O)C5=O)CC2)C1` (stereo not drawn) [CP-052, 6-((4-(5-acetyl-3-(7-(difluoromethyl)-6-(1-methyl-1H-pyrazol-4-yl)-3,4-dihydroquinolin-1(2H)-yl)-4,5,6,7-tetrahydro-1H-pyrazolo[4,3-c]pyridin-1-yl)piperidin-1-yl)methyl)-2-(2,6-dioxopiperidin-3-yl)-6,7-dihydrocyclopenta[f]ioindole-1,3(2H,5H)-dione], the Dmax at CBP and at P300 was more than 70% in each case. For the same compound, the DC50 at CBP and on P300 was less than 10 nM in each case. Besides, the IC50 in the test with 22Rv1 cells is less than 100 nM; in the test with HL60, less than 1000 nM.
